Tests used:
[1] = target: T1, BRAF (Homo sapiens, UniProt P15056); assay: BRAF kinase activity assay (ADP-Glo); format: biochemical; details: Table 3; 10 μM ATP, kinase-dead MEK1 substrate
T1 construct: GST; purchased Millipore Sigma B4062-10UG
Summary of the method: (§1)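 ADP-Glo luminescence read after 2 h reactions at 30° C containing 0.375 nM GST-kinase, kinase-dead MEK1 (75 nM), ATP at 10 μM, pH 7.5 HEPES/MgCl2/DTT, 0.05% DMSO. Compounds dosed from 100 to 0.01 nM (nine points); IC50 from variable-slope fit of % inhibition.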

[2] = target: T2, CRAF (Homo sapiens, UniProt P04049); assay: CRAF kinase activity assay (ADP-Glo); format: biochemical; details: Table 3; 10 μM ATP, kinase-dead MEK1 substrate
T2 construct: fused on or other part: GST tag (N-terminal according to the vendor's product)
T2 sequence (P04049 whole entry Y340E/Y341E, form open, the tested form may be a part): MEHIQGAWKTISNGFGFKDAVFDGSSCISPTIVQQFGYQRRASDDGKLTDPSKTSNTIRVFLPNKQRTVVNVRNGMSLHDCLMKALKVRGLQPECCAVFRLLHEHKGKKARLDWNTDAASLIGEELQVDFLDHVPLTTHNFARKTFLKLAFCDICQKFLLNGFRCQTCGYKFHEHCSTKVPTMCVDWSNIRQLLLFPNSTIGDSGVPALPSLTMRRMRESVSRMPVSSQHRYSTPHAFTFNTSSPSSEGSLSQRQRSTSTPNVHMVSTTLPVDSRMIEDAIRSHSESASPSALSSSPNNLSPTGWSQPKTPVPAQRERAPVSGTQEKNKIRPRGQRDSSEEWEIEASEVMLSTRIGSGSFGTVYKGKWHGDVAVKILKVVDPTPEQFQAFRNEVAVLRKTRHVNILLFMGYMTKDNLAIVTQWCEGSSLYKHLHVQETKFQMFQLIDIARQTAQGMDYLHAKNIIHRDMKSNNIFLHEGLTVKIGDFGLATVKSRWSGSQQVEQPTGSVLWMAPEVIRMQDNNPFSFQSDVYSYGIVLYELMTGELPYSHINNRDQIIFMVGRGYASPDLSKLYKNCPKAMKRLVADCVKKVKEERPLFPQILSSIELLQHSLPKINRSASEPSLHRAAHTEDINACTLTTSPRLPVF
Summary of the method: as §1

[3] = test system: A2058 cells; assay: Proliferation inhibition, CellTiter-Glo, A2058; format: cell-based, human; details: Table D-1; A2058 (BRAF V600E), 3 days; read-out: Prolif. (proliferation EC50)
Experimental: All cancer cell lines (A375, A101D, A2058, RKO, HT29 SK-MEL 30, IPC298, HepG2, HCT-116, Lovo, SW620, SW480, NCI-H358, NCI-H2122, Calu-6, NCIH2087, NCIH1755, NCIH1666 and Mewo) were obtained from ATCC and cultured in RPM1-1640 medium (Gibco) supplemented with 5% heat inactivated fetal bovine serum (FBS, Wisent) at 37° C. under 5% CO2. Cells were maintained in T175 flasks (Greiner). They were passaged by removing the culture medium, washing once in 10 mL of room temperature Phosphate Buffered Saline (PBS; Wisent) and incubating at 37° C. with 2 mL of 0.05% Trypsin (Thermo-Fisher). […]
After 3 days of incubation, the growth media were removed by aspiration and 60 μL of diluted CellTiter-Glo® reagent (10 μL CellTiter-Glo® reagent+50 μL of PBS) was added to each well. […] Luminescence signals were then acquired on a Synergy Neo2 plate reader (Biotek).
The effect of each compound dilution on the proliferation of cancer cell lines was expressed in % inhibition and calculated as follows. […]
The ability of each compound to inhibit proliferation was expressed as a EC50 value obtained by plotting the effect values for each data point of a dilution series and fitting the obtained curves using a log(agonist) versus response—variable slope (four parameters) function using GraphPadPrism (V7.0) or Dotmatics Screening Ultra platform.

T1 sequence (P15056 whole entry): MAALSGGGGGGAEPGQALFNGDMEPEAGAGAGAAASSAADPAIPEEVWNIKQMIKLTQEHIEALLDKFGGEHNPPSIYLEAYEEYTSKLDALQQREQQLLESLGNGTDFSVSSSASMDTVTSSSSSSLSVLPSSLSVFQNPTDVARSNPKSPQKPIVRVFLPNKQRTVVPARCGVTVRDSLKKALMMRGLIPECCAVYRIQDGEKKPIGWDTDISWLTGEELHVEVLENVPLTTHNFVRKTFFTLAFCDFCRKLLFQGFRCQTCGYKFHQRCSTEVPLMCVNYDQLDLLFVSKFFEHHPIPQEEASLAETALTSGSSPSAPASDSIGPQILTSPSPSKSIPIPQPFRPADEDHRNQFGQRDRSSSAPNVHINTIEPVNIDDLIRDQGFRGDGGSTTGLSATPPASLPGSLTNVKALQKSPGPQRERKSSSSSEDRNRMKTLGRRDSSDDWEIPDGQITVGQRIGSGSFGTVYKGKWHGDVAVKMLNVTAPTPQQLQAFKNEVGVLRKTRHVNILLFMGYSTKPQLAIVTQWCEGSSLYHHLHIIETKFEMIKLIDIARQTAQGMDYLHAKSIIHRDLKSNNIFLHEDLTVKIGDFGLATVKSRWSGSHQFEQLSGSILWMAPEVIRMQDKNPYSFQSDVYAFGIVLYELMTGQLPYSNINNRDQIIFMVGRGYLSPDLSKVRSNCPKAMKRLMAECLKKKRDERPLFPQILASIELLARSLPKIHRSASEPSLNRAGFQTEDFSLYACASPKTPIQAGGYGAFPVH

| Structure (SMILES) | IC50 [1] | IC50 [2] | EC50 [3] |
| --- | --- | --- | --- |
| Cc1c(F)cccc1S(=O)(=O)Nc1ccc(F)c(Nc2ncnc3sc(-n4cc(C(=O)N5C6CCC5CN(C)C6)c5ccccc54)nc23)c1F [Example 44] | < 1 nM | < 10 nM | < 300 nM |
| N#CC1(c2cccc3c2ncn3-c2nc3c(Nc4c(F)ccc(NS(=O)(=O)c5cccc(Cl)c5Cl)c4F)ncnc3s2)CC1 [Example 122] | 1 to 10 nM | < 10 nM | < 300 nM |
